{"source": "the supplement of paper PMC8967900", "data": [{"tested_on": "PEER", "test": "selective drug sensitivity score (sDSS, relative to normal bone marrow) (sDSS (score)); higher = more potent and effective on the cell line relative to normal bone marrow cells", "conditions": "72 h", "values": [{"compound": "CNC(=O)c1ccc2cc([C@@]3(O)CCn4cncc43)ccc2c1", "note": "[Orteronel] (top concentration 10000 nM)", "selective drug sensitivity score": 0}, {"compound": "CCC(C)(C)C(=O)O[C@H]1C[C@@H](C)C=C2C=C[C@H](C)[C@H](CC[C@@H]3C[C@@H](O)CC(=O)O3)[C@H]21", "note": "[Simvastatin] (top concentration 10000 nM)", "selective drug sensitivity score": 1.48}, {"compound": "C[C@]12CC[C@H](O)CC1=CC[C@@H]1[C@@H]2CC[C@]2(C)C(c3cccnc3)=CC[C@@H]12", "note": "[Abiraterone] (top concentration 5000 nM)", "selective drug sensitivity score": -0.12}]}, {"tested_on": "HAL-01", "test": "selective drug sensitivity score (sDSS, relative to normal bone marrow) (sDSS (score)); higher = more potent and effective on the cell line relative to normal bone marrow cells", "conditions": "72 h", "values": [{"compound": "CNC(=O)c1ccc2cc([C@@]3(O)CCn4cncc43)ccc2c1", "note": "[Orteronel] (top concentration 10000 nM)", "selective drug sensitivity score": 0}, {"compound": "CCC(C)(C)C(=O)O[C@H]1C[C@@H](C)C=C2C=C[C@H](C)[C@H](CC[C@@H]3C[C@@H](O)CC(=O)O3)[C@H]21", "note": "[Simvastatin] (top concentration 10000 nM)", "selective drug sensitivity score": 3.08}, {"compound": "C[C@]12CC[C@H](O)CC1=CC[C@@H]1[C@@H]2CC[C@]2(C)C(c3cccnc3)=CC[C@@H]12", "note": "[Abiraterone] (top concentration 5000 nM)", "selective drug sensitivity score": -0.12}]}, {"tested_on": "JURKAT", "test": "selective drug sensitivity score (sDSS, relative to normal bone marrow) (sDSS (score)); higher = more potent and effective on the cell line relative to normal bone marrow cells", "conditions": "72 h", "values": [{"compound": "CNC(=O)c1ccc2cc([C@@]3(O)CCn4cncc43)ccc2c1", "note": "[Orteronel] (top concentration 10000 nM)", "selective drug sensitivity score": 0}, {"compound": "CCC(C)(C)C(=O)O[C@H]1C[C@@H](C)C=C2C=C[C@H](C)[C@H](CC[C@@H]3C[C@@H](O)CC(=O)O3)[C@H]21", "note": "[Simvastatin] (top concentration 10000 nM)", "selective drug sensitivity score": -0.52}, {"compound": "C[C@]12CC[C@H](O)CC1=CC[C@@H]1[C@@H]2CC[C@]2(C)C(c3cccnc3)=CC[C@@H]12", "note": "[Abiraterone] (top concentration 5000 nM)", "selective drug sensitivity score": 0.18}]}]}
